Target: T1, HPK1 (Homo sapiens, UniProt Q92918)
T1 construct: purchased Invitrogen
Assay: HPK1 biochemical enzyme assay (microfluidic mobility shift, Caliper)
Settings: 1.5 nM HPK1 (Invitrogen), 1 mM ATP, 30 min preincubation, 60 min at RT, top concentration 3 μM; read-out: HPK1 1000UMATP caliper IC50
Protocol: Example 20. HPK1 Biochemical Enzyme Assay
HPK1 biochemical enzyme assay: HPK1 enzyme inhibition was measured using a microfluidic mobility shift assay. Reactions were performed in a 384-well plate, containing 1.5 nM HPK1 (Invitrogen), in assay buffer (Cama Biosciences; pH 7.4). Test compounds were titrated in ten point curves (top final assay concentration 3 μM), and preincubated with enzyme/substrate mix for 30 min prior to initiation of the reaction by addition of ATP (1 mM final concentration) and substrate (1 μM final concentration; Carna Biosciences) diluted in assay buffer supplemented by MgCl2 (final assay concentration of 5 mM). Following 60 min incubation at RT, the reaction was terminated by addition of 60 μl/well termination buffer (Carna Biosciences) and signal determination using a Caliper EZ Reader (Perkin Elmer, UK).

T1 sequence (Q92918 whole entry): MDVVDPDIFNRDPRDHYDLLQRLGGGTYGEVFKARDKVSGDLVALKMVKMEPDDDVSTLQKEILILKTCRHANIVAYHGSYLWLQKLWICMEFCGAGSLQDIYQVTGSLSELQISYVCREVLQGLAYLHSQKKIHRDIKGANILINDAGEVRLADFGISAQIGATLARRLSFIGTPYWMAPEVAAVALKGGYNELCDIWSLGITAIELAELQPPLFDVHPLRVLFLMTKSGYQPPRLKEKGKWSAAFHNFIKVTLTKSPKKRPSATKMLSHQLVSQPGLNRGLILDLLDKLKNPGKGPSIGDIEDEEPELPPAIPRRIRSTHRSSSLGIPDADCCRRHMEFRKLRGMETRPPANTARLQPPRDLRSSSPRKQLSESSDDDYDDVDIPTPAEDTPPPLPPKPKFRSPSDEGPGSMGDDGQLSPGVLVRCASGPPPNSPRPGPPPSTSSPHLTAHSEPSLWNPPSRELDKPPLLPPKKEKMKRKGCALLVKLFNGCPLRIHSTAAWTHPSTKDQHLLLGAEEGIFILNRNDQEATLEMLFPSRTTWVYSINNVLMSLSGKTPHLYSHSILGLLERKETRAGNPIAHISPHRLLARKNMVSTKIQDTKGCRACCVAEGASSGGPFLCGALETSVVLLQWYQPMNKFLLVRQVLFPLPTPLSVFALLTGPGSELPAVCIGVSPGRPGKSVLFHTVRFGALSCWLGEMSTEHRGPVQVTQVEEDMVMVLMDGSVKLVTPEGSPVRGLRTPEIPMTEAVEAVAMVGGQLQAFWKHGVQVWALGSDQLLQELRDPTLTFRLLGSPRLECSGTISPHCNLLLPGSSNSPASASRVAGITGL

SMILES | IC50 [nM]
CN1CCN(c2ccc(Nc3ccc(-c4ccnc(N5CCC(C#N)CC5)c4)c4c3C(=O)NC4)nc2)CC1 [Compound I-37, 1-[4-[7-[[5-(4-methylpiperazin-1-yl)-2-pyridyl]amino]-1-oxo-isoindolin-4-yl]-2-pyridyl] piperidine-4-carbonitrile] | < 1000
CN1CCN(c2ccc(Nc3ccc(-c4ccnc(N5CCC6(CCCO6)CC5)c4)c4c3C(=O)NC4)nc2)CC1 [Compound I-38, 7-[[5-(4-methylpiperazin-1-yl)-2-pyridyl]amino]-4-[2-(1-oxa-8-azaspiro[4. 5]decan-8-yl)-4-pyridyl] isoindolin-1-one] | 1000 to 5000
CN1CCN(c2ccc(Nc3ccc(-c4ccnc(OCC(=O)N5CCCCC5)c4)c4c3C(=O)NC4)nc2)CC1 [Compound I-39, 7-[[5-(4-methylpiperazin-1-yl)-2-pyridyl]amino]-4-[2-[2-oxo-2-(1-piperidyl)ethoxy]-4-pyridyl] isoindolin-1-one] | < 1000
CN1CCN(c2ccc(Nc3ccc(-c4ccnc(-c5c(F)cccc5F)c4)c4c3C(=O)NC4)nc2)CC1 [Compound I-40, 4-[2-(2,6-difluorophenyl)-4-pyridyl]-7-[[5-(4-methylpiperazin-1-yl)-2-pyridyl]amino] isoindolin-1-one] | 1000 to 5000
CN1CCN(c2ccc(Nc3ccc(-c4ccnc(N5CC6CCC(C5)O6)c4)c4c3C(=O)NC4)nc2)CC1 [Compound I-41] | 1000 to 5000
CN1CCN(c2ccc(Nc3ccc(-c4ccnc(N5CCC6(CCNC6)CC5)c4)c4c3C(=O)NC4)nc2)CC1 [Compound I-42, 4-[2-(2,8-diazaspiro [4.5]decan-8-yl)-4-pyridyl]-7-[[5-(4-methylpiperazin-1-yl)-2-pyridyl]amino] isoindolin-1-one] | < 1000
CC(=O)N1CCN(c2cc(-c3ccc(Nc4ccc(N5CCN(C)CC5)cn4)c4c3CNC4=O)ccn2)CC1 [Compound I-43, 4-[2-(4-acetylpiperazin-1-yl)-4-pyridyl]-7-[[5-(4-methylpiperazin-1-yl)-2-pyridyl]amino] isoindolin-1-one] | 1000 to 5000
CN1CCN(c2ccc(Nc3ccc(-c4ccnc(C5CCOCC5)c4)c4c3C(=O)NC4)nc2)CC1 [Compound I-44, 7-[[5-(4-methylpiperazin-1-yl)-2-pyridyl]amino]-4-(2-tetrahydropyran-4-yl-4-pyridyl) isoindolin-1-one] | 1000 to 5000
CN1CCN(c2ccc(Nc3ccc(-c4ccncn4)c4c3C(=O)NC4)nc2)CC1 [Compound I-45, 7-[[5-(4-methylpiperazin-1-yl)-2-pyridyl]amino]-4-pyrimidin-4-yl-isoindolin-1-one] | < 1000
CN1CCN(c2ccc(Nc3ccc(-c4ccnc(C5(C#N)CCOCC5)c4)c4c3C(=O)NC4)nc2)CC1 [Compound I-46, 4-[4-[7-[[5-(4-methylpiperazin-1-yl)-2-pyridyl]amino]-1-oxo-isoindolin-4-yl]-2-pyridyl] tetrahydropyran-4-carbonitrile] | < 1000
CN1CCN(c2ccc(Nc3ccc(-c4ccnc(OCC5CCC5)c4)c4c3C(=O)NC4)nc2)CC1 [Compound I-47, 4-[2-(cyclobutylmethoxy)-4-pyridyl]-7-[[5-(4-methylpiperazin-1-yl)-2-pyridyl]amino] isoindolin-1-one] | < 1000
CNc1cc(-c2ccc(Nc3ccc(N4CCN(C)CC4)cn3)c3c2CNC3=O)ncn1 [Compound I-48, 4-[6-(methylamino)pyrimidin-4-yl]-7-[[5-(4-methylpiperazin-1-yl)-2-pyridyl]amino] isoindolin-1-one] | < 1000
CNc1nccc(-c2ccc(Nc3ccc(N4CCN(C)CC4)cn3)c3c2CNC3=O)n1 [Compound I-49, 4-[2-(methylamino)pyrimidin-4-yl]-7-[[5-(4-methylpiperazin-1-yl)-2-pyridyl]amino] isoindolin-1-one] | < 1000
CN1CCN(c2ccc(Nc3ccc(-c4ccnc(N(C)C)c4)c4c3C(=O)NC4)nc2)CC1 [Compound I-50] | < 1000
CN1CCN(c2ccc(Nc3ccc(-c4ccnc(N5CCOCC5)n4)c4c3C(=O)NC4)nc2)CC1 [Compound I-51, 7-[[5-(4-methylpiperazin-1-yl)-2-pyridyl]amino]-4-(2-morpholinopyrimidin-4-yl)isoindolin-1-one] | 1000 to 5000
CNc1cc(-c2ccc(Nc3ccc(N4CCN(C)CC4)cn3)c3c2CNC3=O)ccn1 [Compound I-52, 4-[2-(methylamino)-4-pyridyl]-7-[[5-(4-methylpiperazin-1-yl)-2-pyridyl]amino] isoindolin-1-one] | < 1000
CNC1CCN(c2ccc(Nc3ccc(-c4ccncc4)c4c3C(=O)NC4)nc2)CC1 [Compound I-53, 7-[[5-[4-(methylamino)-1-piperidyl]-2-pyridyl]amino]-4-(4-pyridyl) isoindolin-1-one] | < 1000
CN1CCN(c2ccc(Nc3ccc(-c4cncn4C)c4c3C(=O)NC4)nc2)CC1 [Compound I-54, 4-(3-methylimidazol-4-yl)-7-[[5-(4-methylpiperazin-1-yl)-2-pyridyl]amino] isoindolin-1-one] | < 1000

SMILES | IC50 [nM]
CNc1cc(-c2ncc(Nc3ccc(N4CCN(C)CC4)cn3)c3c2CNC3=O)ccn1 [Compound I-56, 4-(2-(methylamino)pyridin-4-yl)-7-((5-(4-methylpiperazin-1-yl)pyridin-2-yl)amino)-2,3-dihydro-1H-pyrrolo[3,4-c]pyridin-1-one] | < 1000
Cc1cc(-c2ccc(Nc3ccc(N4CCN(C)CC4)cn3)c3c2CNC3=O)cc(=O)[nH]1 [Compound I-57, 4-(6-methyl-2-oxo-1,2-dihydropyridin-4-yl)-7-((5-(4-methylpiperazin-1-yl)pyridin-2-yl)amino) isoindolin-1-one] | < 1000
CN1CCN(c2ccc(Nc3cnc(-c4ccnc(N(C)C)c4)c4c3C(=O)NC4)nc2)CC1 [Compound I-58, 4-(2-(dimethylamino)pyridin-4-yl)-7-((5-(4-methylpiperazin-1-yl)pyridin-2-yl)amino)-2,3-dihydro-1H-pyrrolo[3,4-c]pyridin-1-one] | 1000 to 5000
CN1CCN(c2ccc(Nc3ccc(-c4ccnnc4)c4c3C(=O)NC4)nc2)CC1 [Compound I-59, 7-((5-(4-methylpiperazin-1-yl)pyridin-2-yl)amino)-4-(pyridazin-4-yl)isoindolin-1-one] | < 1000
CC#Cc1cc(-c2ccc(Nc3ccc(N4CCN(C)CC4)cn3)c3c2CNC3=O)ccn1 [Compound I-60, 7-((5-(4-methylpiperazin-1-yl)pyridin-2-yl)amino)-4-(2-(prop-1-yn-1-yl)pyridin-4-yl)isoindolin-1-one] | < 1000
CN1CCN(c2ccc(Nc3ccc(-c4cc(N5CC6CCC(C5)O6)ncn4)c4c3C(=O)NC4)nc2)CC1 [Compound I-61, 4-(6-(8-oxa-3-azabicyclo [3.2.1]octan-3-yl)pyrimidin-4-yl)-7-((5-(4-methylpiperazin-1-yl)pyridin-2-yl)amino) isoindolin-1-one] | 1000 to 5000
CN1CCN(c2ccc(Nc3ccc(-c4ccnc(C5CCOCC5)n4)c4c3C(=O)NC4)nc2)CC1 [Compound I-62, 7-((5-(4-methylpiperazin-1-yl)pyridin-2-yl)amino)-4-(2-(tetrahydro-2H-pyran-4-yl)pyrimidin-4-yl)isoindolin-1-one] | 1000 to 5000
CN1CCN(c2ccc(Nc3ccc(-c4ccnc(C#CC5CCCCC5)c4)c4c3C(=O)NC4)nc2)CC1 [Compound I-63, 4-(2-(cyclohexylethynyl)pyridin-4-yl)-7-((5-(4-methylpiperazin-1-yl)pyridin-2-yl)amino) isoindolin-1-one] | < 1000
Cc1cccc(C#Cc2cc(-c3ccc(Nc4ccc(N5CCN(C)CC5)cn4)c4c3CNC4=O)ccn2)c1 [Compound I-64] | < 1000
CN1CCN(c2ccc(Nc3ccc(-c4ccnc(C5CCCCO5)c4)c4c3C(=O)NC4)nc2)CC1 (centres unmarked) [Compound I-65, 7-((5-(4-methylpiperazin-1-yl)pyridin-2-yl)amino)-4-(2-(tetrahydro 2H-pyran-2-yl)pyridin-4-yl)isoindolin-1-one] | 1000 to 5000
CN1CCN(c2ccc(Nc3ccc(-c4ccnc(C5CCCOC5)c4)c4c3C(=O)NC4)nc2)CC1 (centres unmarked) [Compound I-66, 7-((5-(4-methylpiperazin-1-yl)pyridin-2-yl)amino)-4-(2-(tetrahydro-2H-pyran-3-yl)pyridin-4-yl)isoindolin-1-one] | 1000 to 5000
CN1CCN(c2ccc(Nc3ccc(-c4ccnc(C#Cc5ccn(C)n5)c4)c4c3C(=O)NC4)nc2)CC1 [Compound I-67, 4-(2-((1-methyl-1H-pyrazol-3-yl)ethynyl)pyridin-4-yl)-7-((5-(4-methylpiperazin-1-yl)pyridin-2-yl)amino) isoindolin-1-one] | < 1000
CN1CCN(c2ccc(Nc3ccc(-c4ccnc(C#CC5CCCO5)c4)c4c3C(=O)NC4)nc2)CC1 (centres unmarked) [Compound I-68] | < 1000
CN1CCN(c2ccc(Nc3ccc(-c4cc(C5CCOCC5)ncn4)c4c3C(=O)NC4)nc2)CC1 [Compound I-69] | < 1000
CN1CCN(c2ccc(Nc3ccc(-c4ccncc4C4CCOCC4)c4c3C(=O)NC4)nc2)CC1 [Compound I-70, 7-((5-(4-methylpiperazin-1-yl)pyridin-2-yl)amino)-4-(3-(tetrahydro-2H-pyran-4-yl)pyridin-4-yl)isoindolin-1-one] | 1000 to 5000
Cn1cncc1-c1ccc(Nc2ccc(N3CCNCC3)cn2)c2c1CNC2=O [Compound I-71, 4-(1-methyl-1H-imidazol-5-yl)-7-((5-(piperazin-1-yl)pyridin-2-yl)amino) isoindolin-1-one] | < 1000
Cc1ncc(-c2ccc(Nc3ccc(N4CCNCC4)cn3)c3c2CNC3=O)n1C [Compound I-72, 4-(1,2-dimethyl-1H-imidazol-5-yl)-7-((5-(piperazin-1-yl)pyridin-2-yl)amino) isoindolin-1-one] | < 1000

From patent US11926625B2, “HPK1 antagonists and uses thereof” (Nimbus Saturn, Inc., priority 2021, dated 2024)
